Test results taken from patent publication US10889627B2, “Pro-drug peptide with improved pharmaceutical properties” (UREKA SARL, priority 2017, dated 2021).
Like-named read-outs stand apart in the source and are kept apart here.

Legend:
[1] = pH 7.4
Description: (§1) A solution of the compound (e.g., glucagon or analogues thereof) was prepared in a 0.01M HCl solution. Then 0.1 mL of the stock solution was diluted to 1 mL with HCl (0.01M) and the UV absorbance was measured (to 280 nm) with NanoDrop UV spectrometer (NanoDrop 1000 from Thermo Fischer Company). The pH of the remaining stock solution was adjusted to pH 7 using Na2HPO4 (0.1M) and the solution was allowed to stand overnight at 4° C. Then the solution was centrifuged three times (5 min, 4000 min^−1), 0.1 mL of the supernatant was removed and diluted to 1 mL with HCl solution (0.01M). The final UV absorbance was measured. The solubility was accessible by the following formula: (Final Absorbance/Initial Absorbance)×100=Percent Soluble

[2] = Solubility assay (Example 2, percent soluble by UV absorbance); details: PBS buffer (0.1M) at pH 7.4
Description: as §1

[3] = Stability assay in NaCl 0.9% aqueous solution (RP-HPLC); type: physicochemical; details: 1 mg/mL
Description: A solution of 1 mg/mL of peptide or peptidomimetic (glucagon or analog thereof) was prepared in a NaCl 0.9% aqueous solution and stored at room temperature, or 4° C., or 37° C. and or 50° C. The samples were analyzed by RP-HPLC on a Dionex U3000SD using a Macherey-Nagel Nucleodur C18ec column (4×100 mm, 3 μm) at a flow rate of 1 mL/min with UV detection at 200 nm. The mobile phase was composed of 0.1% (v/v) TFA-H2O (Solvent A) and 0.1% (v/v) TFA-CH3CN (Solvent B).

Wistar Rat = experiment: Rat studies, blood glucose after i.v. dosing (Example 2); type: in vivo; details: Wistar rats, 3 hours fasting, 10 nM/kg i.v., FIGS. 12 and 13
Excerpt: The rats (Wistar Rat, males, 8-week old, n=6 or 3) were housed in ventilated and enriched housing cages (310×125×127 mm^3) throughout the experimental phase. […] The rates were acclimated for 5 days with standard diet and tap water.

| Substance | Solubility at 1 mg/mL [1] [%] | Solubility at 1 mg/mL [2] [%] | Percentage of peptide remaining ([3]; 4° C., 1 month (T0 = 100%)) [%] | Percentage of peptide remaining ([3]; 4° C., 1 week (T0 = 100%)) [%] | Percentage of peptide remaining ([3]; 4° C., 5 months (T0 = 100%)) [%] | Percentage of peptide remaining ([3]; RT, 1 month (T0 = 100%)) [%] | Percentage of peptide remaining ([3]; RT, 1 week (T0 = 100%)) [%] | Percentage of peptide remaining ([3]; RT, 5 months (T0 = 100%)) [%] | Glycogen breakdown (increased blood glucose levels) compared to glucagon (Wistar Rat) |
| --- | --- | --- | --- | --- | --- | --- | --- | --- | --- |
| EPHSQGTFTSDYSKYLDSRRAQDFVQWLLNT-NH2 [Peptide 18] | 18 |  |  |  |  |  |  |  |  |
| K*PHSQGTFTSDYSKYLDSRRAQDFVQWLLNT-NH2 [Peptide 22] |  | 34 |  |  |  |  |  |  |  |
| KPKPKPHSQGTFTSDYSKYLDSRRAQDFVQWLLNT-NH2 [Peptide 14] |  | 77 | 99 | 99 | 97 | 97 | 99 | 87 | greater glycogen breakdown |
